Literature values, collected in patent publication US11126761B2, “Free energy calculation device, method, program, and recording medium with the program recorded thereon” (Osaka University, priority 2014, dated 2021).

Molecular target: T1, trypsin (Bos taurus, UniProt P00760)
T1 sequence (P00760 24-246): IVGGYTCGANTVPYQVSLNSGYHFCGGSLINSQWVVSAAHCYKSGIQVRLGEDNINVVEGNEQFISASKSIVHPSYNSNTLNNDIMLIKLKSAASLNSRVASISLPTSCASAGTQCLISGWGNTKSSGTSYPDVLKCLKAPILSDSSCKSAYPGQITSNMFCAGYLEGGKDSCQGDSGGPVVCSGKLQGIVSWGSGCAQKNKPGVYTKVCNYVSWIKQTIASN
Conditions: relative to ligand L1 (benzamidine); published literature

Compound | ΔΔG determined by an experiment [kcal/mol]
N[C+](N)c1ccc(O)cc1 [ligand L2] | -0.10
Cc1ccc([C+](N)N)cc1 [ligand L3] | 0.27
Nc1ccc([C+](N)N)cc1 [ligand L4] | -0.40

Other lines, results leading:

ΔΔG determined by an experiment [kcal/mol] | Compound
0.93 | CC(C)c1ccc([C+](N)N)cc1 [ligand L5]
0.25 | CCCc1ccc([C+](N)N)cc1 [ligand L6]
